Entries after “also recorded” stand apart in the source; their conditions may differ. Like-named read-outs stand apart in the source and are kept apart here.
How the values were obtained:
[1] = system: Lymphoma (Non-Hodgkin) LYXFNH HH (CTCL cell line HH); test: CFA / 3D clonogenic assay, LYXFNH HH; type: cell-based, human; settings: for IC50: CTCL cell line HH
Description: (§1) CFA was performed by Charles River Laboratories (Freiburg, Germany) in 96-well plate format according to a modified two-layer soft agar assay. The origin of the tumor xenografts has been described (Fiebig et al. 1989, incorporated herein by reference). The list of tumors used in this study is detailed in Table 1.
The cell lines tested were from a large collection of patient-derived (PDX) and cell line-derived (CDX) human tumor xenografts growing subcutaneously in immunodeficient nude mice (Oncotest GmbH, a Charles River Division). The majority of the xenografts have been directly transplanted from patients and passaged in nude mice. The xenografts retain most of the characteristics of the parental patient tumors including histology and sensitivity to anti-cancer drugs, and efficacy tests in tumor-bearing nude mice largely replicate the response of the donor patient to standard anti-cancer drugs. The cell lines were from publicly available cell lines, including cell lines derived from solid tumors and hematological malignancies. In the clonogenic assay, the capacity of tumor cells for anchorage-independent growth was investigated as colony formation in soft agar in the presence and absence of test compounds. For the assay, tumor cells were harvested from in vitro culture, or tumor cell suspensions were prepared directly from human tumor xenografts growing in nude mice. The cell suspensions also contained tumor stem cells, which are believed to mediate the metastatic and infiltrative potential of a tumor. […]
Formula C was investigated for antitumor potency and tumor type selectivity ex vivo in 11 human tumor models (5 tumor cell lines, 6 xenograft-derived cell suspensions) of various histotypes. Tests were carried out using a 3D clonogenic assay in 96-well format using an image based read-out.
The clonogenic assay was carried out in a 96 well plate format using ultra low attachment plates. […] Cultures were incubated at 37° C. and 7.5% CO2 in a humidified atmosphere for 8 to 14 days and monitored closely for colony growth using an inverted microscope. […]

Breast MAXF MDA-MB-231 = test: CFA, MAXF MDA-MB-231; type: cell-based, human; settings: Cell line/CFA
Description: as §1

Stomach GXF 214 = test: CFA, GXF 214; type: cell-based, human; settings: PDX/CFA
Description: as §1

Skin SCC SXFS 627 = test: CFA, SXFS 627; type: cell-based, human; settings: PDX/CFA
Description: as §1

Breast MAXF 1322 = test: CFA, MAXF 1322; type: cell-based, human; settings: PDX/CFA
Description: as §1

[2] = Phase 1a single topical application, pharmacokinetics; type: in vivo, human; settings: healthy volunteers
Description: The Phase 1a clinical trial was a randomized, double-blinded, placebo-controlled, dose-escalation study in healthy older-adult volunteers to evaluate the safety, tolerability, and pharmacokinetics of a single topical dermal application of Formula C ointment. The study was conducted under FDA IND in a Phase 1 unit in the United States.
Fifteen healthy volunteers, aged 35-70, were sequentially assigned to 1 of 3 consecutive treatment cohorts (5%, 10% or 20% Formula C ointment, respectively). Five subjects were randomized in a double-blind fashion in each dose cohort: 4 subjects received active Formula C ointment and 1 received matched placebo (0% Formula C; vehicle control). The study ointment (250 mg) was applied once to a 25 centimeter squared area of skin on the forehead of each volunteer.

HK2 = biological target: T1, HK2 (Homo sapiens, UniProt P52789); test: HK catalytic activity coupled enzymatic assay, HK2; type: biochemical; settings: as a function of ATP or glucose; absence or presence of 10 M Formula C
T1 construct: host or cells: E. coli
Description: A431 (human skin SCC), HT-297.T (human AK), and HaCaT transformed normal keratinocyte cell lines were from ATCC (Manassas, VA) and were maintained in DMEM supplemented with 10% FCS, 4 mM L-Gln, 1 mM sodium pyruvate, 100 U/mL penicillin, 1 μg/mL streptomycin. Human HK1 and HK2 plasmids were purchased from Addgene (Cambridge, MA) and were purified from E. Coli. VDAC1 was purified from sheep liver mitochondria as described (Arbel et al. 2012, incorporated herein by reference). Human skin tissue microarray (SK208 and SK 805) were purchased from US Biomax Inc. (Rockville, MD).
Hexokinase catalytic activity was determined by the coupled enzymatic assay in which hexokinase catalyzes the conversion of glucose to G6P, which is then oxidized by glucose-6-phosphate dehydrogenase (G6PDH) in the presence of NADP to form 6-Phospho-D-Gluconate and NADPH. NADPH production results in a colorimetric signal at 340 nm, which is proportional to the hexokinase catalytic activity. The readings were recorded in an ELISA plate reader Infinite 200 ELISA reader (Tecan, Männedorf, Switzerland).

[3] = system: Leukemia (AML) LEXFAM NOMO-1; test: CFA, LEXFAM NOMO-1; type: cell-based, human; settings: Cell line/CFA
Description: as §1

Liver (HCC) LIXFH Hep G2 = test: CFA, LIXFH Hep G2; type: cell-based, human; settings: Cell line/CFA
Description: as §1

[4] = system: Leukemia (AML) LEXFAM THP-1; test: CFA, LEXFAM THP-1; type: cell-based, human; settings: Cell line/CFA
Description: as §1

Breast MAXF 401 = test: CFA, MAXF 401; type: cell-based, human; settings: PDX/CFA
Description: as §1

T1 sequence (P52789 whole entry): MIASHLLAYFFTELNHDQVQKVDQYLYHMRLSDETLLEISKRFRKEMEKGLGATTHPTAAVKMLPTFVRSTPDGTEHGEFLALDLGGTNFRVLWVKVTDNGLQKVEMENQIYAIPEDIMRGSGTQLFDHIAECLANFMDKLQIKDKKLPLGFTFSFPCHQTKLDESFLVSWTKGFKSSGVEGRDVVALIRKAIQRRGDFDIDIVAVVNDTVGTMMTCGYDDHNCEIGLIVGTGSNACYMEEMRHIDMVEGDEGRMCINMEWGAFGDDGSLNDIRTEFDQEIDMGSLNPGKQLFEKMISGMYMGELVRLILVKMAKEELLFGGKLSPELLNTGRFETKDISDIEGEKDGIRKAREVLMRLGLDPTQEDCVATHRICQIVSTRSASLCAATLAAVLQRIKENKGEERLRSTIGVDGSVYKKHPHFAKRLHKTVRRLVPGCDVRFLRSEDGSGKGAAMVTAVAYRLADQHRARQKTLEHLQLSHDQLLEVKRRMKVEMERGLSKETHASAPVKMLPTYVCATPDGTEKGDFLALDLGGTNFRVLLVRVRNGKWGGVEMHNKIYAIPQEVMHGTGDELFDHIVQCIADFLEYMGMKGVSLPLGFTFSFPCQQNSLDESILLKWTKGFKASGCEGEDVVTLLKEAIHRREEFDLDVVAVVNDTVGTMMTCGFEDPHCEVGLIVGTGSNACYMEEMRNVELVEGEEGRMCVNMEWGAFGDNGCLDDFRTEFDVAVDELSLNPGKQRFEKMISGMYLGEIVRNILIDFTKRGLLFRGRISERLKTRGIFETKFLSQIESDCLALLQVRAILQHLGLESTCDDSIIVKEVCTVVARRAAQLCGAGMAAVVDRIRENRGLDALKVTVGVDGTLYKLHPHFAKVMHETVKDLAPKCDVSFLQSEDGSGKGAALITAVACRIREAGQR

For `CC/C=C\CC1C(=O)CCC1CC(=O)Oc1cccc2cccnc12` (stereo not shown) [Formula C], the IC50 ([1]; clonogenic assay in soft agar, read-out: relative IC50, colony formation) was 1220 nM, the IC50 ([1]; clonogenic assay, concentration at T/C=50%, read-out: absolute IC50, colony formation) was 1200 nM and the “test concentration from which pronounced effects were observed” value ([1]; clonogenic assay, cell lines) was ≥ 3 µM. The IC50 (Breast MAXF MDA-MB-231) was 1700 nM, the IC50 (Stomach GXF 214) was 1940 nM and the IC50 (Skin SCC SXFS 627) was 1560 nM. The IC50 (Breast MAXF 1322) was 1550 nM, the “systemic exposure of VDA-1102 or its major metabolite” value [2] was “No systemic exposure” and the HK2 catalytic activity (HK2) was “does not affect; also recorded: did not affect the catalytic activity”. For the same compound, the IC50 [3] was 1420 nM, the IC50 (Liver (HCC) LIXFH Hep G2) was 5200 nM and the IC50 [4] was 2180 nM. The IC50 (Breast MAXF 401) was 4220 nM.

From patent US12527782B2, “Use of hexokinase 2/mitochondria-detaching compounds for treating hexokinase-2 (HK2)-expressing cancers” (Vidac Pharma Ltd., priority 2016, dated 2026)
